Like-named read-outs stand apart in the source and are kept apart here.
Legend:
HCT116 xenografts = assay: Subcutaneous xenograft, drug-sensitive tumors; details: for increase of the tumor doubling time / reduction in the tumor volume: 5FU versus untreated or ibrutinib-treated group p<0.05; for average volume of the tumor masses: after 28 days, alone or combined, control ≈435
[1] = tested on: HCT116p53KO, DLD-1 and SW480 cell lines; assay: cells; details: Homo sapiens, 72 h, read-out: cell mortality
Experimental: The tumor cell line initially used was HCT116p53KO (which differs from the wild type (wt) HCT116 due to the lack of gene p53), related to the colon tumor, while further detailed studies of specific genes were carried out on other drug-resistant tumor cell lines of the colon, such as DLD-1 and SW480, as well as on tumor cell lines of the lung and ovary. In particular, all cell lines that were the object of the analysis, were related to tumors of epithelial type.

wt HCT116 cells = assay: cells; details: Homo sapiens, HCT-116, 72 h, read-out: cell mortality
HCT116p53KO cells [2] = details: 200 μM 5FU, 20 μM ibrutinib, singly or combined, 72 hr
HCT116p53KO cells [3] = assay: Calcein cell viability assay, ibrutinib with or without 5FU; assay type: cell-based, human; details: 72 hr; for percentage of live HCT116p53KO cells (100% = living cells at day 0): without ibrutinib 177.5%
Experimental: (§1) 100% represent the percentage of living cells at day 0, before starting the treatment.
(§2) Viability was evaluated after 72 hr of incubation by calcein assay. 100% represent the percentage of living cells at day 0, before starting treatment with the drugs. […] At the end of the treatment, cell viability was evaluated by calcein assay. 100% represent the percentage of living cells at day 0, before starting treatment with the drugs.

HCT116 cells [4] = details: 72 hr
[5] = tested on: HCT116 overexpressing p65BTK (HCT116-p65BTK); details: 200 μM 5FU, 72 hr
Experimental: as §2

HCT116p53KO xenografts = assay: Subcutaneous xenograft, drug-resistant tumors; details: for average volume of the tumor masses: after 28 days, 5FU 60 mg/kg i.p. twice a week, alone or combined, control ≈955
HCT116 cells [6] = details: 200 μM 5FU, 72 hr
Experimental: as §1, §2

[7] = tested on: tumor cells of the colon-rectum in advanced phase; details: therapy based on 5FU; cited from earlier work
SW480 colon cancer cells = details: 72 hr
Experimental: FIG. 26a: SW480; FIG. 26b: HT-29.
as §2
100% represent the percentage of living cells at day 0, before starting treatment with the drugs.

HT-29 colon cancer cells = details: with 200 μM 5FU, 72 hr
Experimental: Cells were treated for 72 hrs in absence of any drug or in presence of FU 200 μM; 1 μM AVL-292; 1 μM AVL-292+5FU 200 μM; 5 μM AVL-292; 5 μM AVL-292+5FU 200 μM; 10 μM AVL-292; […]; viability was evaluated at the end of the incubation using the calcein assay. FIG. 26a: SW480; FIG. 26b: HT-29.
In the experiments shown in FIG. 26 SW480 and HT-29 colon carcinoma cell lines were grown in vitro for 72 hr in the presence of different concentrations of AVL-292, a small molecule inhibitor of BTK, (Celgene Corporation, Summit, N.J.) (from 0 to 20 μM) and of 5FU (200 μM)+AVL-292 (from 0 to 20 μM); cell viability was evaluated at the end of the incubation using the calcein assay. 100% represent the percentage of living cells at day 0, before starting treatment with the drugs.

HCT116p53KO cells [8] = assay: Reversion of 5FU resistance by functional blocking of BTK (cell death); assay type: cell-based, human; details: 200 μM 5FU, 72 hr; agents compared with each other
From the text: FIG. 8 is a graph illustrating the reversion of the resistance to a chemotherapeutic drug of tumor cell line HCT116p53KO carried out by means of functional blocking of the gene BTK obtained with different methods.
In FIG. 8, the results of the comparison test are reported in a graph of the functional blocking of the BTK gene by means of plasmids (e.g., encoding p68BTK), siRNA or LFM-A13 in samples of HCT116p53KO cells treated with 5FU. […] In detail, FIG. 8 compares the percentages of cell deaths in the presence of 200 μM 5FU (72 hr treatment) upon wt HCT116 cells and HCT116p53KO drug resistant cells with or without (symbol “empty” and “−”) specific depletions of BTK following transient siRNA transfection (symbol “BTKi”), stable retroviral-mediated RNA interference (symbol “shBTK”), and using LFMA13, an inhibitor compound of BTK.

[9] = tested on: SKOV cells (ovarian tumor); assay: Cell death with or without BTK inhibition by LFM-A13; assay type: cell-based, human; details: 200 μM 5FU, 50 μM OxPt, or the combination of the two
From the text: (§3) The diminution of the resistance to chemotherapeutic drugs following the functional blocking of the gene BTK by means of LFM-A13 was further confirmed by tests conducted in vitro on epithelial tumor cell lines different from those of the colon. In FIG. 11 levels of BTK have been investigated, by means of Western blot, in several different epithelial carcinoma cell lines showing that the kinase is expressed in most of them. In particular, in FIGS. 12a and 12b, graphs were reported of the reversion tests obtained on SKOV cell lines (related to an ovarian tumor) and A549 cell lines (related to a lung tumor).
(§4) In detail, FIG. 12a compares the percentages of cell deaths in the absence (symbol “NT” and “−”) and presence of 200 μM 5FU, 50 μM OxPt, and the combination of the two upon resistant ovarian (SKOV) cells with or without BTK inhibition through the usage of LMFA13. […] FIG. 12b compares the percentages of cell deaths in the absence (symbol “NT” and “−”) and presence of 200 μM 5FU, 50 μM OxPt, and the combination of the two upon resistant lung (A549) cells with or without BTK inhibition through the usage of LMFA13.

A549 cells (lung tumor) = assay: as above; assay type: cell-based, human; details: 200 μM 5FU, 50 μM OxPt, or the combination of the two
From the text: as §3, §4

HCT116p53KO cells [10] = assay: Caspase 3/7 activation assay; assay type: cell-based, human; details: 5FU-treated cells in the presence of LFM-A13; luminometric assay
From the text: FIG. 14 is a graph illustrating the results of […] caspase activation assays after 72 hrs and 96 hrs in HCT116 and HCT116p53KO colon carcinoma cells treated with 5FU, BTK inhibition, or the combination of the two.
The results have shown that BTK levels determine the sensitivity of tumor cells to 5FU and that BTK inhibition reverses drug-resistance. […] The same finding is also supported by the graph reported in FIG. 14, evaluating the level of caspase 3/7 activation upon 5FU treatment in HCT116p53KO resistant cells in the presence or in the absence of BTK inhibitor LFM-A13. High levels of caspase 3/7 activation, measured by means of a luminometric assay as RLU/number of cells, are observed in 5FU-treated HCT116p53KO cells only when BTK is inhibited.

[11] = tested on: 5FU-resistant, p53-null (HCT116p53KO, SW480 and HT-29) cell lines; assay: Calcein cell viability assay, ibrutinib dose range; assay type: cell-based, human; details: highest concentration (range 0 to 30 μM), 72 hours
From the text: as §1

[12] = tested on: HCT116p53KO, SW480, DLD-1 and HCT116 cell lines; details: up to 10 μM, 72 hours
HCT116p53KO cells [13] = assay: Short-term viability under targeted therapy with or without ibrutinib (MTT); assay type: cell-based, human; details: 25 μg/ml bevacizumab, 10 μg/ml cetuximab or 75 μg/ml panitumumab alone, 72 hr
[14] = 5FU 60 mg/kg ± dasatinib 50 mpk, p<0.05
[15] = dasatinib 50 mpk oral gavage once a day 5 days a week
[16] = ibrutinib 25 mpk oral gavage once daily 5 days a week

## O=c1[nH]cc(F)c(=O)[nH]1 [5FU, 5-fluorouracil]
HCT116 xenografts; [14]
  increase of the tumor doubling time versus untreated (or dasatinib-treated) group: significant
  reduction in the tumor volume versus untreated (or dasatinib-treated) group: significant
HCT116 xenografts; 5FU 60 mpk, ibrutinib 25 mpk
  increase of the tumor doubling time: significant
  reduction in the tumor volume: significant
  average volume of the tumor masses: ≈ 226 mm^3
HCT116 xenografts; 5FU 60 mpk, ibrutinib 50 mpk
  increase of the tumor doubling time: significant
  reduction in the tumor volume: significant
  average volume of the tumor masses: ≈ 226 mm^3
HCT116 xenografts; 5FU 60 mg/kg, dasatinib 50 mpk
  average volume of the tumor masses: 226 mm^3
[1]
  mortality at 200 µM: < 10%
Wt HCT116 cells
  mortality at 200 µM: > 95%
HCT116p53KO cells [2]
  cell death (photographs): no cell death
HCT116p53KO cells [3]; 5FU 200 μM alone
  effect on viability: little effect
HCT116 cells [4]; 10 μM 5FU, 10 μM ibrutinib, singularly or in combination
  cell death (photographs): no cell death
HCT116 cells [4]; 5FU 200 μM
  cell death (photographs): massive cell death
[5]
  response to the cytotoxic effect of 5FU: resistant
HCT116p53KO xenografts; 5FU 60 mpk, ibrutinib 25 mpk, 5FU+Ibr25 Vs. Ctrl p=0.012, Vs. Ibr25 p=0.039
  reduction of the tumor volume (significance): did not cause a significant reduction
HCT116p53KO xenografts; [15]
  average volume of the tumor masses: ≈ 530 mm^3
HCT116p53KO xenografts; [16]
  average volume of the tumor masses: ≈ 530 mm^3
HCT116 cells [6]
  response to the cytotoxic effect of 5FU: sensitive
[7]
  effective response (share of the cells): 10-15%

## C=CC(=O)Nc1cccc(Nc2nc(Nc3ccc(OCCOC)cc3)ncc2F)c1 [AVL-292]
SW480 colon cancer cells; 5 μM combined with 200 μM 5FU
  cell death: 66.8%
SW480 colon cancer cells; 10 μM alone
  cell death: 19.9%
SW480 colon cancer cells; 20 μM alone
  cell death: 65.3%
HT-29 colon cancer cells
  AVL-292 concentration from which sensitization to the cytotoxic effect of 5FU starts: ≥ 20 µM

## C/C(O)=C(\C#N)C(=O)Nc1cc(Br)ccc1Br [LFM-A13, (2Z)-2-cyan-N-(2,5-dibromophenyl)-3-hydroxy-2-butenamide]
HCT116p53KO cells [8]
  level of reversion to the drug resistance, expressed as percentage fraction of dead cells: comparable
[9]
  percentage of cell deaths with LFM-A13 compared to without: high percentage of tumor cell death
A549 cells (lung tumor)
  percentage of cell deaths with LFM-A13 compared to without: high percentage of tumor cell death
HCT116p53KO cells [10]
  caspase 3/7 activation: High levels

## Cc1nc(Nc2ncc(C(=O)Nc3c(C)cccc3Cl)s2)cc(N2CCN(CCO)CC2)n1 [dasatinib]
HCT116 xenografts; 5FU 60 mg/kg, dasatinib 50 mpk
  average volume of the tumor masses: ≈ 343 mm^3
HCT116p53KO xenografts; [15]
  average volume of the tumor masses: ≈ 355 mm^3

## C=CC(=O)N1CCC[C@@H](n2nc(-c3ccc(Oc4ccccc4)cc3)c3c(N)ncnc32)C1 [ibrutinib]
[11]
  number of cells (100% = living cells at day 0): below 100%
HCT116 xenografts; 5FU 60 mpk, ibrutinib 25 mpk
  average volume of the tumor masses: ≈ 347 mm^3
HCT116 xenografts; 5FU 60 mpk, ibrutinib 50 mpk
  average volume of the tumor masses: ≈ 372 mm^3
HCT116p53KO cells [3]; 10 μM ibrutinib
  percentage of live HCT116p53KO cells (100% = living cells at day 0): 130.2%
HCT116p53KO cells [3]; 20 μM ibrutinib
  percentage of live HCT116p53KO cells (100% = living cells at day 0): 116.1%
HCT116p53KO xenografts; [16]
  average volume of the tumor masses: ≈ 760 mm^3
[12]
  cytotoxicity: not cytotoxic

## bevacizumab: monoclonal antibody used in anti-cancer therapy for targeting VEGF
HCT116p53KO cells [13]
  cell viability: does not affect

## panitumumab: monoclonal antibody used in anti-cancer therapy for targeting EGFR
HCT116p53KO cells [13]
  cell viability: does not affect
